One assay has as its system J774 cells. In words: ACAT inhibitory activity (anti-foamation activity) in J774 cells. Format: cell-based. Conditions: for IC50: J774 cells, 10 µg/ml 25-OH cholesterol, 18 hours, cholesterol ester = TC minus FC per protein, read-out: Enzyme (J774) IC50; for IC50 (HepG2) / IC50 (J774): ratio HepG2 / J774. As for the experimental part:
(§1) J774 cells or HepG2 cells were spread on a 24-well plate. The cells were incubated in a 5% CO2 incubator at 37°C for 24 hours using DMEM in the case of the J774 cells and a MEM culture solution in the case of the HepG2 cells (both containing 10% fetal calf serum).
(§2) The medium was removed, and the residue was washed twice with PBS, then extracted with 1.5 ml of a hexane:isopropanol (3:2) mixture, and concentrated to dryness. The extract was dissolved in 0.2 ml of isopropanol containing 10% Triton X-100. Total cholesterol (TC) and free cholesterol (FC) were measured using Cholesterol E Test Wako (supplied by Wako Pure Chemical Industries, Ltd.) and Free Cholesterol E Test Wako (supplied by Wako Pure Chemical Industries, Ltd.).
(§3) The cell extract residue was solubilized in 0.25 ml of 2N NaOH at 37°C for 30 minutes, and the protein amount was measured using BCA Protein Assay Reagent (Pierce).
(§4) The amount of cholesterol based on the protein was calculated from the difference between TC and FC, and an IC50 value was obtained from the calculation in contrast with the control.

The next assay has as its system HepG2 cells. Kind of assay: ACAT inhibitory activity (anti-foamation activity) in HepG2 cells. Format: cell-based. Conditions: 10 µg/ml 25-OH cholesterol, 18 hours, cholesterol ester = TC minus FC per protein, read-out: Enzyme (HepG2) IC50. As for the experimental part: as §1, §2, §3, §4
The target in assay [1] is ACAT enzyme from the blood vessel wall (Oryctolagus cuniculus, UniProt G1SUQ0). Kind of assay: ACAT inhibitory activity, microsomal enzyme from the blood vessel wall (breast aorta). In kind it is biochemical, rabbit. Conditions: for IC50 (B‡) / IC50 (A‡): ratio small intestine / blood vessel wall. Here is the method:
A microsome was prepared from the breast aorta of a rabbit which had been fed with 1% cholesterol food for 8 weeks in a usual manner, and suspended in a 0.15 M phosphate buffer solution (pH 7.4) to form an enzyme solution. An enzyme solution derived from the small intestine was prepared from the small intestine of a rabbit that had eaten a normal food.
To this solution were added 10 µl of the enzyme solution, and the mixture was reacted at 37°C for 5 minutes (for 3 minutes in the case of the small intestine). Then, 3 ml of a chloroform/methanol (2/1) mixture and 0.5 ml of 0.04 N hydrochloric acid were added thereto to stop the reaction. The lipid was then extracted. The solvent layer was concentrated to dryness, and dissolved in hexane. The solution was spotted on a TLC plate (supplied by Merck Co.). The elution was conducted with a hexane:ether:acetic acid (75:25:1) mixture.
The radioactivity of the resulting cholesterol ester fraction was measured using BAS 2000 (supplied by Fuji Photo Film Co., Ltd.). An IC50 value was obtained from the calculation in contrast with a control containing only DMSO.

Broadly, the IC50 is the point on the concentration scale where inhibition reaches its midpoint.

Like-named read-outs stand apart in the source and are kept apart here.

ACAT enzyme from the blood vessel wall, sequence (G1SUQ0 entry or part of it): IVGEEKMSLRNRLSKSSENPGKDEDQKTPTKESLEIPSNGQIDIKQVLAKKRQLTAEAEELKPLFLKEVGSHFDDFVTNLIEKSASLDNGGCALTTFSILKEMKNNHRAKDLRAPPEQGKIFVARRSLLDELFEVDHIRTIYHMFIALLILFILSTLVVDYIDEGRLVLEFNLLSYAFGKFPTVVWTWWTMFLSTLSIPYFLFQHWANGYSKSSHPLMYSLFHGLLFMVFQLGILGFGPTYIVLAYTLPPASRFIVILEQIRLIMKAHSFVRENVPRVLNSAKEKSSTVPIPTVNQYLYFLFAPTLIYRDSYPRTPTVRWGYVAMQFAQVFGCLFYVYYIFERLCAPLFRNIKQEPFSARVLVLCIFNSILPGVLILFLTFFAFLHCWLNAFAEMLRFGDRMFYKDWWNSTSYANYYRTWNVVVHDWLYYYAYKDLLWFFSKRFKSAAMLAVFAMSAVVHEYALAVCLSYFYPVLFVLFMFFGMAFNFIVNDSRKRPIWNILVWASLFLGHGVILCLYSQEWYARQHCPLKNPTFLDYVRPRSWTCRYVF

With `CCSc1cc(C)nc(SCC)c1NC(=O)CSc1nc2ccccc2o1` [Compound No. 811, 2-(benzoxazol-2-ylthio)-N-[2,4-bis(ethylthio)-6-methyl-3-pyridyl]acetamide], the IC50 is 50 nM with J774 cells (Mus musculus) and 1800 nM with HepG2 cells (Homo sapiens). The “IC50 (HepG2) / IC50 (J774)” value in the assay on J774 cells was found to be 36.0.

For `CCSc1cc(C)nc(SCC)c1NC(=O)CCCCCCSc1nc2c(C)c(Cl)cc(C(C)C)c2o1` [Compound No. 1282, 7-(5-chloro-7-isopropyl-4-methylbenzoxazol-2-ylthio)-N-[2,4-bis(ethylthio)-6-methyl-3-pyridyl]heptanamide], the IC50 with J774 cells (Mus musculus) worked out at 3.2 nM; in the assay with HepG2 cells (Homo sapiens), 6.2 nM. For the same compound, the “IC50 (HepG2) / IC50 (J774)” value in the assay on J774 cells stood at 1.9.

As to `CCSc1cc(C)nc(SCC)c1NC(=O)CCCCCSc1nc2ccccc2o1` [Compound No. 815, 6-(benzoxazol-2-ylthio)-N-[2,4-bis(ethylthio)-6-methyl-3-pyridyl]hexanamide], the figures for the concentration for half-maximal inhibition (IC50) with J774 cells (Mus musculus) and in the assay on HepG2 cells (Homo sapiens) were 120 nM and 2600 nM, respectively. In addition, the “IC50 (HepG2) / IC50 (J774)” value in the assay on J774 cells is 21.7.

Take `Cc1cc(SC(C)C)c(NC(=O)CCCCCCCCSc2nc3cccc(C(F)(F)F)c3o2)c(SC(C)C)n1` [compound 1294, 9-(7-trifluoromethylbenzoxazol-2-ylthio)-N-[2,4-bis(isopropylthio)-6-methyl-3-pyridyl] nonanamide]: in the assay with J774 cells, the 50% inhibitory concentration (IC50) is 4.2 nM and the “IC50 (HepG2) / IC50 (J774)” value amounted to 0.6. Besides, the IC50 in the assay on HepG2 cells is 2.4 nM.

With `CC(C)c1cccc(C(C)C)c1NC(=O)CCCCCSc1nc2ccccc2o1` [Control 5, 6-(benzoxazol-2-ylthio)-N-(2,6-diisopropylphenyl)hexanamide, reference compound], the results for the half-inhibitory concentration (IC50) in the assay on J774 cells (Mus musculus) and in the assay on HepG2 cells (Homo sapiens) were 1900 nM and 1600 nM, respectively. Moreover, the “IC50 (HepG2) / IC50 (J774)” value with J774 cells amounted to 0.8.

In the case of `CSc1cc(C)nc(SC)c1NC(=O)CCCCCCCSc1nc2ccccc2s1` [Compound No. 797, 8-(benzthiazol-2-ylthio)-N-[2,4-bis(methylthio)-6-methyl-3-pyridyl)octanamide], the IC50 worked out at 3.6 nM in the assay on J774 cells (Mus musculus) and 29 nM with HepG2 cells (Homo sapiens). Besides, the “IC50 (HepG2) / IC50 (J774)” value in the assay with J774 cells was 8.1.

In the case of `CC(C)c1cccc(C(C)C)c1NC(=O)C(C)(C)CCCOc1ccc2c(c1)C=C(c1nccn1C)C(CCc1ccc(F)cc1)O2` (centres unmarked) [Control 1, 5-[2-(2-(4-fluorophenyl)ethyl)-3-(1-methyl-1H-imidazol-2--yl)-2H-1-benzopyran-6-yl]oxy-2,2-dimethyl-N-(2,6-diisopropylphenyl)pentanamide, reference compound], the concentration for half-maximal inhibition (IC50) with J774 cells (Mus musculus) came out at 560 nM; with HepG2 cells (Homo sapiens) it was 5300 nM; in assay [1] (A‡: the blood vessel wall, microsome from breast aorta of rabbit fed 1% cholesterol food for 8 weeks, 14C-Oleoyl-CoA 40 µM, 37°C, 5 minutes), 450 nM. In the assay with J774 cells, the “IC50 (HepG2) / IC50 (J774)” value stood at 9.5. Besides, the “IC50 (B‡) / IC50 (A‡)” value in assay [1] is on record as 1.9.

For the compound `CCSc1cc(C)nc(SCC)c1NC(=O)CCCCCCCCSc1nc2ccccc2o1` [Compound No. 818, 9-(benzoxazol-2-ylthio)-N-[2.4-bis(ethylthio)-6-methyl-3-pyridyl]nonanamide], the concentration for half-maximal inhibition (IC50) with J774 cells (Mus musculus) came out at 62 nM; with HepG2 cells (Homo sapiens), 63 nM. In addition, the “IC50 (HepG2) / IC50 (J774)” value with J774 cells amounted to 1.0.

Turning to `CCSc1cc(C)nc(SCC)c1NC(=O)CSc1nc2ccccc2[nH]1` [Compound No. 831, 2-(benzimidazol-2-ylthio)-N-[2,4-bis(ethylthio)-6-methyl-3-pyridyl]acetamide], the IC50 in the assay with J774 cells (Mus musculus) was found to be 57 nM; in the assay with HepG2 cells (Homo sapiens), 5400 nM. Moreover, the “IC50 (HepG2) / IC50 (J774)” value in the assay with J774 cells is given as 94.7.

For `CSc1cc(C)nc(SC)c1NC(=O)CCCCCSc1nc2ccccc2s1` [Compound No. 795, 6-(benzothiazol-2-ylthio)-N-[2,4-bis(methylthio)-6-methyl-3-pyridyl]hexanamide], the IC50 with J774 cells (Mus musculus) was determined as 50 nM; in the assay on HepG2 cells (Homo sapiens), 350 nM. Further, the “IC50 (HepG2) / IC50 (J774)” value in the assay on J774 cells amounted to 7.0.

Turning to `CSc1cc(C)nc(SC)c1NC(=O)CCCCCCCSc1nc2cccc(C(F)(F)F)c2o1` [Compound No. 1253, 8-(7-trifluoromethylbenzoxazol-2-ylthio)-N-[2,4-bis(methylthio)-6-methyl-3-pyridyl]octanamide], the IC50 with J774 cells (Mus musculus) turned out to be 4.1 nM; in the assay on HepG2 cells (Homo sapiens), 4.4 nM. Moreover, the “IC50 (HepG2) / IC50 (J774)” value in the assay with J774 cells turned out to be 1.1.

Regarding `CCCCCCCCCN(CC(C)(C)C)C(=O)N[C@H]1CCCC[C@@H]1OC(=O)CCNC(=O)C1OC(C)(C)OCC1(C)C` (stereo partly drawn) [Control 3, N-(2,2,5,5-tetramethyl-1,3-dioxan-4-ylcarbonyl)-β-alanine 2 (S)-[N'-(2,2-dimethylpropyl)-N'-nonylureido]-1(S)-cyclohexyl ester, reference compound], the IC50 was found to be 320 nM with J774 cells (Mus musculus) and 1300 nM with HepG2 cells (Homo sapiens).

On to `Cc1cc(SC(C)C)c(NC(=O)CCCCCCSc2nc3cccc(C(F)(F)F)c3o2)c(SC(C)C)n1` [Compound No. 1292, 7-(7-trifluoromethylbenzoxazol-2-ylthio)-N-[2,4-bis(isopropylthio)-6-methyl-3-pyridyl] heptanamide], for which, in the assay with J774 cells, the IC50 came to 2.7 nM and the “IC50 (HepG2) / IC50 (J774)” value is 11.1. The IC50 in the assay on HepG2 cells turned out to be 30 nM.

Take `Cc1cc(SC(C)C)c(NC(=O)CCCCCCSc2nc3c(C)c(Cl)cc(C(C)C)c3o2)c(SC(C)C)n1` [Compound No. 1302, 7-(5-chloro-7-isopropyl-4-methylbenzoxazol-2-ylthio)-N-[2,4-bis(isopropylthio)-6-methyl-3-pyridyl]heptanamide]: the figures for the half-inhibitory concentration (IC50) with J774 cells (Mus musculus) and in the assay with HepG2 cells (Homo sapiens) were 2.1 nM and 15 nM, respectively. The “IC50 (HepG2) / IC50 (J774)” value in the assay on J774 cells is reported as 7.1.

For `CCCCCCCN(CCCCCSc1nc(-c2ccccc2)c(-c2ccccc2)[nH]1)c1nc2ccccc2o1` [Control 4, [5-(4,5-diphenyl-1H-imidazol-2-ylthio)pentyl]-N-heptyl-2-benzoxazolamie, reference compound], the 50% inhibitory concentration (IC50) in the assay on J774 cells (Mus musculus) was 120 nM; with HepG2 cells (Homo sapiens) it was 750 nM. Besides, the “IC50 (HepG2) / IC50 (J774)” value with J774 cells is listed as 6.3. Also, the “IC50 (B‡) / IC50 (A‡)” value in assay [1] is 1.4.

These data come from patent EP0979823B1, “NOVEL AMIDE COMPOUNDS AND DRUGS CONTAINING THE SAME” (Kowa Company Ltd., priority 1997, dated 1999).
